# PubChem BioAssay (NCI)
#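 Interpolation was linear, between the two tested concentrations surrounding the appropriate level; five concentrations were tested over 48 hours in 96-well plates. At the GI50, growth is halved. TGI is the concentration that stops growth completely.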
# Key:
# Assay in all cases: NCI tumour cell line growth inhibition, 48 h
# DU-145 prostate = tested on: DU-145 prostate
# A549 NSCLC = tested on: A549 NSCLC
# OVCAR-8 ovarian = tested on: OVCAR-8 ovarian
# RXF 393 renal = tested on: RXF 393 renal
# MCF7 breast = tested on: MCF7 breast
# M14 melanoma = tested on: M14 melanoma
# UACC-62 melanoma = tested on: UACC-62 melanoma
# SF-295 CNS = tested on: SF-295 CNS
# T-47D breast = tested on: T-47D breast
# SW-620 colon = tested on: SW-620 colon
# SK-MEL-28 melanoma = tested on: SK-MEL-28 melanoma
Compound,TGI (DU-145 prostate),TGI (A549 NSCLC),TGI (OVCAR-8 ovarian),TGI (RXF 393 renal),TGI (MCF7 breast),TGI (M14 melanoma),TGI (UACC-62 melanoma),TGI (SF-295 CNS),TGI (T-47D breast),TGI (SW-620 colon),TGI (SK-MEL-28 melanoma),GI50 (MCF7 breast)
O=C1CC2(CCC(O)(c3ccc(Cl)cc3)C(C(=O)c3ccc(Cl)cc3)C2)C(=O)c2ccccc2N1 (centres undefined),> 36.8 µM,> 50.8 µM,> 62.4 µM,22.3 µM,> 100 µM,> 100 µM,> 52.8 µM,39.5 µM,> 72.3 µM,> 100 µM,20.6 µM,
C=C[C@H]1CN2CCc3c([nH]c4c([C@H]5CCCN5C)c(O)ccc34)[C@@H]2C[C@@H]1C[C@H]1c2[nH]c3ccccc3c2CCN1C,3 µM,3.08 µM,2.91 µM,2.25 µM,2.22 µM,2.89 µM,3.16 µM,3.25 µM,3.72 µM,2.93 µM,3.3 µM,1.05 µM
COC(=N)C12C(N)=NC(OC)(OC)C1(C#N)C21C(=O)N(c2ccccc2)N=C1C (centres undefined),> 100 µM,> 100 µM,> 100 µM,> 100 µM,> 100 µM,> 100 µM,> 100 µM,> 100 µM,> 100 µM,> 100 µM,> 100 µM,
O=c1c2cccnc2nc2ccc3c[nH][nH]c3c12,> 10 µM,> 10 µM,> 10 µM,> 10 µM,> 10 µM,> 10 µM,> 10 µM,> 10 µM,> 10 µM,> 10 µM,> 10 µM,
CC(C)(C)N1NC1C1NN1C(C)(C)C (centres undefined),> 100 µM,> 100 µM,> 100 µM,> 100 µM,> 100 µM,> 100 µM,> 100 µM,> 100 µM,> 100 µM,> 100 µM,> 100 µM,
[N-]=[N+]=Nc1ccc2c(c1)Sc1ccccc1N2CCCCCl,> 100 µM,> 100 µM,> 100 µM,> 100 µM,> 100 µM,> 100 µM,> 100 µM,> 100 µM,> 100 µM,> 100 µM,> 100 µM,
CN(C)CCNc1ccc2c(=O)n(CCN(C)C)c(=O)n3c4ccc(N)cc4c(=O)c1c23,2.08 µM,0.599 µM,0.722 µM,0.263 µM,0.242 µM,0.449 µM,1.21 µM,1.07 µM,4.64 µM,0.637 µM,0.819 µM,
CC1N(C)C(=O)OC12CCN(CCCC(=O)c1ccc(F)cc1)CC2 (centres undefined),> 100 µM,> 100 µM,> 100 µM,> 100 µM,> 100 µM,> 100 µM,> 100 µM,> 100 µM,> 100 µM,> 100 µM,> 100 µM,
c1ccc(CCN(Cc2nc3ccccc3[nH]2)Cc2nc3ccccc3[nH]2)cc1,31.7 µM,44.8 µM,18.6 µM,28.9 µM,35.1 µM,26.7 µM,28.3 µM,35.4 µM,40.8 µM,26 µM,30.4 µM,
O=[N+]([O-])c1cccc2nccc(NCC(O)CO)c12 (centres undefined),75.6 µM,36.4 µM,33.2 µM,26.4 µM,40 µM,32.9 µM,31.5 µM,53.7 µM,96.1 µM,36.1 µM,34 µM,
CCCCc1c2c(nc3c1CCC/C3=C\c1ccccc1)C(=O)C(CN(C)C)CC2 (centres undefined),29.1 µM,37.3 µM,46.1 µM,30.9 µM,15.7 µM,33.7 µM,48.4 µM,33.3 µM,14 µM,31.5 µM,28.3 µM,
CCOC(=O)c1ccc(C(=O)/C(C#N)=C2\CCCN2)[nH]1,> 100 µM,> 100 µM,> 100 µM,> 100 µM,> 100 µM,> 100 µM,> 100 µM,> 100 µM,> 100 µM,> 100 µM,> 100 µM,
S=C(Nc1cccc(Cl)c1)Nc1ccccn1,> 100 µM,> 100 µM,> 100 µM,> 100 µM,> 100 µM,> 100 µM,> 100 µM,> 100 µM,> 100 µM,> 100 µM,> 100 µM,
COC(=O)[C@H](Cc1ccccc1)NC(=O)N1CCN(C(=O)N[C@@H](Cc2ccccc2)C(=O)OC)CCN(C(=O)N[C@@H](Cc2ccccc2)C(=O)OC)CC1,> 100 µM,> 100 µM,> 100 µM,> 100 µM,> 100 µM,> 100 µM,> 100 µM,> 100 µM,> 100 µM,> 100 µM,> 100 µM,
Cc1ccccc1N(C)S(=O)(=O)c1ccccc1[N+](=O)[O-],> 100 µM,> 100 µM,> 100 µM,83 µM,> 100 µM,> 100 µM,> 100 µM,> 100 µM,> 100 µM,> 100 µM,> 100 µM,
C=C(C)[C@@H]1CC[C@]2(C(=O)O)CC[C@]3(C)[C@H](CC[C@@H]4[C@@]5(C)CC[C@H](C(=O)/C=C/c6ccc(O)cc6)C(C)(C)[C@@H]5CC[C@]43C)[C@@H]12,18.1 µM,> 100 µM,53.9 µM,65.1 µM,11.5 µM,21.9 µM,30 µM,21.7 µM,20.7 µM,15.2 µM,26.5 µM,
O=S1(=O)CCN(Cc2ccccc2)/C1=N\S(=O)(=O)c1ccc(Cl)cc1,35.3 µM,> 100 µM,32.9 µM,34.6 µM,42.4 µM,32.9 µM,32 µM,> 100 µM,39.5 µM,36.7 µM,32.8 µM,
C=C1C(=O)C23CC1C[C@H](OC(C)=O)C2C1(C)C(OC(C)=O)C[C@H](O)C(C)(C)[C@H]1C(O)[C@@H]3OC(C)=O (some centres undefined),33.2 µM,48.8 µM,22 µM,19.9 µM,19.4 µM,18.7 µM,26.5 µM,> 57.6 µM,24.8 µM,6.14 µM,24.4 µM,
